Experimental data taken from PMC4317638 (Emerging Microbes & Infections, 2014).
Like-named read-outs stand apart in the source and are kept apart here.

Tests used:
[1] = tested on: Ebola VLP entry into HeLa cells; assay: microbe, parasite or virus in culture; assay type: cell-based, Ebola virus; conditions: for IC90: read-out: Block Ebola VLP entry IC90; for Emax: read-out: Block Ebola VLP entry Max. Inh.
Ebola virus infection [2] = conditions: cited from earlier work
Ebola virus infection [3] = conditions: in vivo; cited from earlier work
in vitro = conditions: human, Cytotoxicity IC50
[4] = read-out: Block Ebola VLP entry IC50
[5] = Zaire ebolavirus, HeLa, read-out: Block Ebola VLP entry IC50
[6] = Zaire ebolavirus, HeLa, read-out: IC50 of blocking Ebola VLP entry

Question: What does the source list for `CCN(CC)CCOc1ccc(C(=C(Cl)c2ccccc2)c2ccccc2)cc1` [Clomiphene]?
Answer: IC90 ([1]; Zaire ebolavirus, HeLa): 5.34 µM; Emax ([1]; Zaire ebolavirus, HeLa): 92%; Block of Ebola virus infection (Ebola virus infection [2]): effectively block Ebola virus infection; Efficacy in a mouse infection model (Ebola virus infection [3]): effective in a mouse infection model; IC50 (in vitro): 91.4 µM

Question: Which results are given for `COc1cccc2c1C(=O)c1c(O)c3c(c(O)c1C2=O)C[C@@](O)(C(C)=O)C[C@@H]3O[C@H]1C[C@H](N)[C@H](O)[C@H](C)O1` [Daunorubicin]?
Answer: Block Ebola VLP entry Max. Inh. [1]: 96%; Selectivity Index [1]: 103 fold; IC50 [1, 4]: 2.43 µM; IC90 [1]: 4.45 µM; IC50 (HeLa cells; human): 250 µM

Question: Which “Selectivity Index” value [1] does the source give for `C[C@H]1O[C@@H](O[C@H]2[C@@H](O)C[C@H](O[C@H]3[C@@H](O)C[C@H](O[C@H]4CC[C@@]5(C)[C@H](CC[C@@H]6[C@@H]5C[C@@H](O)[C@]5(C)[C@@H](C7=CC(=O)OC7)CC[C@]65O)C4)O[C@@H]3C)O[C@@H]2C)C[C@H](O)[C@@H]1O` [Digoxin] here?
Answer: 327 fold

Question: What about the IC50 [1, 5] of the same molecule?
Answer: 0.763 µM

Question: And the IC90 ([1]; Zaire ebolavirus, HeLa)?
Answer: 3.45 µM

Question: What about the Emax ([1]; Zaire ebolavirus, HeLa) of the same molecule?
Answer: 68%

Question: What about the IC50 [1, 6] of the same molecule?
Answer: 0.76 µM

Question: And the IC50 (in vitro)?
Answer: 250 µM

Question: And the “Cytotoxicity” value (HeLa cells)?
Answer: cytotoxicity at a compound concentration similar to that effective in blocking Ebola VLP entry

Question: With `N=C(N)NN=C(/C=C/c1ccc([N+](=O)[O-])o1)/C=C/c1ccc([N+](=O)[O-])o1` [Nitrovin] as the molecule, how does the “Block Ebola VLP entry Max. Inh.” value [1] read?
Answer: 95%

Question: And the IC50 [1, 4]?
Answer: 4.85 µM

Question: What about the IC90 [1] of the same molecule?
Answer: 7.14 µM

Question: And the IC50 (HeLa cells)?
Answer: > 500 µM

Question: Which “Selectivity Index” value [1] does the source give for `CN1CCN(CC/C=C2/c3ccccc3Sc3ccc(S(=O)(=O)N(C)C)cc32)CC1` [Thiothixene] here?
Answer: 36 fold

Question: What about the IC50 [1, 5] of the same molecule?
Answer: 1.92 µM

Question: What about the IC90 ([1]; Zaire ebolavirus, HeLa) of the same molecule?
Answer: 7.18 µM

Question: What about the Emax ([1]; Zaire ebolavirus, HeLa) of the same molecule?
Answer: 100%

Question: What about the IC50 [1, 6] of the same molecule?
Answer: 1.9 µM

Question: And the IC50 (in vitro)?
Answer: 70.1 µM

Question: Which “Selectivity Index” value [1] does the source give for `CCN(CC)CCOc1ccc2c(c1)C(=O)c1cc(OCCN(CC)CC)ccc1-2` [Tilorone] here?
Answer: >146 fold

Question: And the IC50 [1, 5]?
Answer: 3.43 µM

Question: What about the IC90 ([1]; Zaire ebolavirus, HeLa) of the same molecule?
Answer: 19 µM

Question: And the Emax ([1]; Zaire ebolavirus, HeLa)?
Answer: 100%

Question: What about the IC50 (in vitro) of the same molecule?
Answer: > 500 µM

Question: What does the source list for `CC[C@@]1(O)C(=O)OCc2c1cc1n(c2=O)Cc2cc3c(CN(C)C)c(O)ccc3nc2-1` [Topotecan]?
Answer: Selectivity Index [1]: >130 fold; IC50 [1, 5]: 3.85 µM; IC90 ([1]; Zaire ebolavirus, HeLa): 10.8 µM; Emax ([1]; Zaire ebolavirus, HeLa): 107%; IC50 (in vitro): > 500 µM

Question: Which results are given for `CN(C)CCOc1ccc(/C(=C(/CCCl)c2ccccc2)c2ccccc2)cc1` [Toremifene]?
Answer: Selectivity Index [1]: 316 fold; IC50 [1, 5]: 0.566 µM; IC90 ([1]; Zaire ebolavirus, HeLa): 3.73 µM; Emax ([1]; Zaire ebolavirus, HeLa): 98%; IC50 [1, 6]: 0.56 µM; IC50 ([1]; read-out: IC50 of blocking Ebola VLP entry): 0.55 µM; Block of Ebola virus infection (Ebola virus infection [2]): effectively block Ebola virus infection; Efficacy in a mouse infection model (Ebola virus infection [3]): effective in a mouse infection model; IC50 (in vitro): 180 µM

Question: Which “Selectivity Index” value [1] does the source give for `CN1CCN(CCCN2c3ccccc3Sc3ccc(C(F)(F)F)cc32)CC1` [Trifluoperazine] here?
Answer: 21 fold

Question: What about the IC50 [1, 5] of the same molecule?
Answer: 4.48 µM

Question: And the IC90 ([1]; Zaire ebolavirus, HeLa)?
Answer: 12 µM

Question: And the Emax ([1]; Zaire ebolavirus, HeLa)?
Answer: 97%

Question: And the IC50 [1, 6]?
Answer: 4.4 µM

Question: What about the IC50 (HeLa cells; human) of the same molecule?
Answer: 97 µM

Question: For `CC[C@]1(O)C[C@@H]2CN(CCc3c([nH]c4ccccc34)[C@@](C(=O)OC)(c3cc4c(cc3OC)N(C)[C@H]3[C@@](O)(C(=O)OC)[C@H](OC(C)=O)[C@]5(CC)C=CCN6CC[C@]43[C@@H]65)C2)C1` [Vinblastine], which “Selectivity Index” value [1] is on record?
Answer: >10 324 fold

Question: And the IC50 [1, 5]?
Answer: 0.048 µM

Question: What about the IC90 ([1]; Zaire ebolavirus, HeLa) of the same molecule?
Answer: 0.13 µM

Question: What about the Emax ([1]; Zaire ebolavirus, HeLa) of the same molecule?
Answer: 87%

Question: What about the IC50 (in vitro) of the same molecule?
Answer: > 500 µM

Question: Which results are given for `CC[C@]1(O)C[C@H]2CN(CCc3c([nH]c4ccccc34)[C@@](C(=O)OC)(c3cc4c(cc3OC)N(C=O)[C@H]3[C@@](O)(C(=O)OC)[C@H](OC(C)=O)[C@]5(CC)C=CCN6CC[C@]43[C@@H]65)C2)C1` [Vincristine]?
Answer: Selectivity Index [1]: >3554 fold; IC50 [1, 5]: 0.141 µM; IC90 ([1]; Zaire ebolavirus, HeLa): 0.258 µM; Emax ([1]; Zaire ebolavirus, HeLa): 83%; IC50 [1, 6]: 0.14 µM; IC50 (in vitro): > 500 µM

Question: For `CCC1=C[C@@H]2CN(C1)Cc1c([nH]c3ccccc13)[C@@](C(=O)OC)(c1cc3c(cc1OC)N(C)[C@H]1[C@@](O)(C(=O)OC)[C@H](OC(C)=O)[C@]4(CC)C=CCN5CC[C@]31[C@@H]54)C2` [Vinorelbine/Navelbine, Vinorelbine], which “Selectivity Index” value [1] is on record?
Answer: >7546 fold

Question: What about the IC50 [1, 5] of the same molecule?
Answer: 0.066 µM

Question: What about the IC90 ([1]; Zaire ebolavirus, HeLa) of the same molecule?
Answer: 0.19 µM

Question: What about the Emax ([1]; Zaire ebolavirus, HeLa) of the same molecule?
Answer: 90%

Question: And the IC50 (in vitro)?
Answer: > 500 µM

Question: Which “Block Ebola VLP entry Max. Inh.” value [1] does the source give for Spiramycin here?
Answer: 92%

Question: What about the IC90 [1] of the same molecule?
Answer: 11.7 µM

Question: What about the IC50 (HeLa cells) of the same molecule?
Answer: > 500 µM
